Reference: paper PMC7845594, “Novel Immune Modulators Enhance Caenorhabditis elegans Resistance to Multiple Pathogens” (mSphere, 2021)

System: C. elegans transcriptome
Assay: Transcriptome profiling (Affymetrix microarrays), differentially expressed genes
Type: in vivo, Caenorhabditis elegans
Experimental: To gain additional insight into the effect of LK molecules on C. elegans, young-adult, wild-type worms were treated with each drug at 100 µM for 8 h in the absence of pathogen. RNA was collected, and transcriptome profiling was performed.
Data were determined using Affymetrix microarrays, as described in Materials and Methods. Download Table S3, XLSX file, 0.07 MB.
Transcriptome profiling was performed on ∼6,000 wild-type, young adult worms incubated with either LK molecules or DMSO for 8 h. RNA isolation was performed using TRIzol extraction, followed by cleanup using RNeasy columns according to the manufacturer’s protocol. Each condition was analyzed in triplicate. Microarray data have been deposited in the GEO database, accession number GSE137516. […] Clustering and generation of the heat map was performed using Cluster 3.0 ([98]) and Treeview ([99]), respectively. Fold change of genes were normalized to average fold change of that gene over all clustered conditions. Genes and conditions were clustered using Euclidean distance and average linkages. […] Microarray data for non-LK molecules were collected from GEO omnibus. WormEXP was used as a secondary method for confirming statistical significance of potential pathways stimulated by each of the LK molecules ([100]). Gene ontologies were generated using DAVID ([101], [102]).

## CN(C)/N=N/c1ccc(-c2cn(Cc3ccccc3)cn2)cc1 [LK38]
Gene Y40D12A.2, Affy_ID 191017_at, downregulated genes
  Fold Change: 0.3923
Gene Y43F8B.2, Affy_ID 172568_x_at, downregulated genes
  Fold Change: 0.4361
Gene Y44A6C.1, Affy_ID 182843_at, downregulated genes
  Fold Change: 0.4118
Gene Y45F10A.5, Affy_ID 184558_at, downregulated genes
  Fold Change: 0.1874
Gene Y46G5A.11, Affy_ID 184716_at, downregulated genes
  Fold Change: 0.4392
Gene Y48A6B.7, Affy_ID 193926_at, downregulated genes
  Fold Change: 0.1656
Gene Y48A6B.7, Affy_ID 193927_s_at, downregulated genes
  Fold Change: 0.1715
Gene Y51A2D.13, Affy_ID 192992_at, downregulated genes
  Fold Change: 0.2626
Gene Y51H4A.7, Affy_ID 180145_s_at, downregulated genes
  Fold Change: 0.364
Gene Y59E9AR.7, Affy_ID 172629_x_at, downregulated genes
  Fold Change: 0.2101
Gene Y59H11AM.1, Affy_ID 172113_x_at, downregulated genes
  Fold Change: 0.292
Gene Y71H2AL.1, Affy_ID 177190_at, downregulated genes
  Fold Change: 0.3481
Gene Y105C5A.13, Affy_ID 172627_x_at, downregulated genes
  Fold Change: 0.08697
Gene Y105C5A.24, Affy_ID 187121_at, downregulated genes
  Fold Change: 0.3583
Gene Y119D3B.13, Affy_ID 175112_s_at, downregulated genes
  Fold Change: 0.1938
Gene Y119D3B.13, Affy_ID 176131_at, downregulated genes
  Fold Change: 0.2809
Gene ZC416.6, Affy_ID 188470_s_at, downregulated genes
  Fold Change: 0.4112
Gene ZK112.1, Affy_ID 175995_at, downregulated genes
  Fold Change: 0.3894
Gene ZK131.4, Affy_ID 190307_s_at, downregulated genes
  Fold Change: 0.355
Gene ZK131.7, Affy_ID 172871_x_at, downregulated genes
  Fold Change: 0.3915
Gene ZK354.1, Affy_ID 172927_x_at, downregulated genes
  Fold Change: 0.2349
Gene ZK1248.4, Affy_ID 172734_x_at, downregulated genes
  Fold Change: 0.2783
Gene ZK1248.6, Affy_ID 172887_x_at, downregulated genes
  Fold Change: 0.1775
Gene ZK1251.6, Affy_ID 172938_x_at, downregulated genes
  Fold Change: 0.2909
Upregulated gene Y19D10A.9, Affy_ID 180592_s_at
  Fold Change: 3.58
Upregulated gene Y22F5A.4, Affy_ID 182989_at
  Fold Change: 2.438
Upregulated gene Y22F5A.5, Affy_ID 183028_s_at
  Fold Change: 6.765
Upregulated gene Y37D8A.6, Affy_ID 181665_at
  Fold Change: 2.8924
Upregulated gene Y37E3.16, Affy_ID 173045_at
  Fold Change: 4.522
Upregulated gene Y38E10A.14, Affy_ID 175449_s_at
  Fold Change: 26.3223
Upregulated gene Y39G10AR.10, Affy_ID 176486_at
  Fold Change: 4.567
Upregulated gene Y40B10A.6, Affy_ID 176851_at
  Fold Change: 66.4819
Upregulated gene Y41C4A.16, Affy_ID 194230_x_at
  Fold Change: 2.891
Upregulated gene Y41D4B.10, Affy_ID 176055_at
  Fold Change: 10.2277
Upregulated gene Y41D4B.16, Affy_ID 176044_at
  Fold Change: 4.224
Upregulated gene Y45F10C.4, Affy_ID 186062_at
  Fold Change: 3.88
Upregulated gene Y45G12C.2, Affy_ID 187084_at
  Fold Change: 31.3356
Upregulated gene Y46C8AL.2, Affy_ID 172184_x_at
  Fold Change: 22.6612
Upregulated gene Y46G5A.4, Affy_ID 187467_s_at
  Fold Change: 2.088
Upregulated gene Y47D3B.10, Affy_ID 175803_at
  Fold Change: 15.9397
Upregulated gene Y47D7A.1, Affy_ID 176618_at
  Fold Change: 2.89
Upregulated gene Y47H9C.5, Affy_ID 191065_s_at
  Fold Change: 3.429
Upregulated gene Y51H7C.1, Affy_ID 186349_at
  Fold Change: 10.9287
Upregulated gene Y53G8B.2, Affy_ID 184714_s_at
  Fold Change: 6.111
Upregulated gene Y54G2A.6, Affy_ID 173144_at
  Fold Change: 2.211
Upregulated gene Y55B1AR.1, Affy_ID 187047_at
  Fold Change: 6.195
Upregulated gene Y57A10A.23, Affy_ID 187073_at
  Fold Change: 4.734
Upregulated gene Y66D12A.24, Affy_ID 175124_at
  Fold Change: 2.206
Upregulated gene Y77E11A.2, Affy_ID 187013_at
  Fold Change: 2.874
Upregulated gene Y105C5B.15, Affy_ID 186799_at
  Fold Change: 3.08
Upregulated gene Y105C5B.9, Affy_ID 185162_at
  Fold Change: 4.4277
Upregulated gene Y106G6D.6, Affy_ID 185498_at
  Fold Change: 6.567
Upregulated gene ZC155.1, Affy_ID 173222_s_at
  Fold Change: 2.443
Upregulated gene ZK455.1, Affy_ID 193891_at
  Fold Change: 2.648
Upregulated gene ZK455.7, Affy_ID 193924_at
  Fold Change: 3.307
Upregulated gene ZK512.7, Affy_ID 186714_s_at
  Fold Change: 3.427
Upregulated gene ZK637.13, Affy_ID 173475_s_at
  Fold Change: 2.9018
Upregulated gene ZK770.3, Affy_ID 180366_s_at
  Fold Change: 3.303
Upregulated gene ZK899.2, Affy_ID 178376_s_at
  Fold Change: 3.754
